Assay results published in patent US8476434B2, “Protein kinase modulators and method of use” (Amgen Inc., priority 2004, dated 2013).

Molecular target: T1, LCK KD GST (225-509) (Homo sapiens, UniProt P06239)
T1 construct: LCK KD GST (225-509); GST
Test: LCK Homogenous Time Resolved Fluorescent (HTRF) kinase assay
Format: biochemical
Procedure: The LCK HTRF assay begins with LCK in the presence of ATP phosphorylating the biotinylated peptide Gastrin. The reaction incubates for 90 min. To quench the assay detection reagents are added which both stop the reaction by diluting out the enzyme and chelating the metals due to the presence of EDTA. Once the detection reagents are added the assay incubates for 30 min to allow for equilibration of the detection reagents.
Buffer conditions are as follows: 50 mM HEPES pH 7.5, 50 mM NaCl, 20 mM MgCl, 5 mM MnCl, 2 mM DTT, 0.05% BSA.
The assay is quenched and stopped with 160 μL of detection reagent. Detection reagents are as follows: Buffer made of 50 mM Tris, pH 7.5, 100 mM NaCl, 3 mM EDTA, 0.05% BSA, 0.1% Tween20.
The assay plate is read in either a Discovery or a RubyStar.

T1 sequence (P06239 225-509): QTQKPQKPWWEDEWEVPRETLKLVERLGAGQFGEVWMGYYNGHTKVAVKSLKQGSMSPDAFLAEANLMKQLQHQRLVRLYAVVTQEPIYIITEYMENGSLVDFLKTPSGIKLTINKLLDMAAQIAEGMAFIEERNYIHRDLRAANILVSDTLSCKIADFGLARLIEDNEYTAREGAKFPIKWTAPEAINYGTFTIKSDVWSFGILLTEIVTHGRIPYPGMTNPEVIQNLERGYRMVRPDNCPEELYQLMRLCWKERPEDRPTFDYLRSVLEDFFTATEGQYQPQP

Row | Structure (SMILES) | IC50 [nM]
1 | CNc1ncnc(-c2cccnc2Oc2cc(C(=O)Nc3cccc(OCc4ccccc4)c3)ccc2C)n1 [4-methyl-3-((3-(4-(methylamino)-1,3,5-triazin-2-yl)-2-pyridinyl)oxy)-N-(3-((phenylmethyl)oxy)phenyl)benzamide] | < 1000
2 | CNc1ncnc(-c2cccnc2Oc2cc(C(=O)Nc3cccc(C(F)(F)F)c3)ccc2C)n1 [4-methyl-3-((3-(4-(methylamino)-1,3,5-triazin-2-yl)-2-pyridinyl)oxy)-N-(3-(trifluoromethyl)phenyl)benzamide] | < 1000
3 | Cc1ccc(C(=O)Nc2ccc(C(F)(F)F)cc2)cc1Nc1ncccc1-c1ccncn1 [4-methyl-3-((3-(4-pyrimidinyl)-2-pyridinyl)amino)-N-(4-(trifluoromethyl)phenyl)benzamide] | < 1000
4 | Cc1ccc(C(=O)Nc2cccc(C(F)(F)F)c2)cc1Oc1ncccc1-c1ccncn1 [4-methyl-3-((3-(4-pyrimidinyl)-2-pyridinyl)oxy)-N-(3-(trifluoromethyl)phenyl)benzamide] | < 1000
5 | Cc1ccc(C(=O)Nc2cccc(C(C)C)c2)cc1Oc1ncccc1-c1ncnc(NCCCN2CCOCC2)n1 [4-methyl-N-(3-(1-methylethyl)phenyl)-3-((3-(4-((3-(4-morpholinyl)propyl)amino)-1,3,5-triazin-2-yl)-2-pyridinyl)oxy)benzamide] | < 1000
6 | CNc1nccc(-c2cccnc2Oc2ccc(NC(=O)Nc3cc(Cl)ccc3Cl)cc2C)n1 [N-(2,5-dichlorophenyl)-N′-(3-methyl-4-((3-(2-(methylamino)-4-pyrimidinyl)-2-pyridinyl)oxy)phenyl)urea] | < 1000
7 | CNc1cc(-c2cccnc2Oc2ccc(F)c(C(=O)Nc3cc(C(C)(C)C)ccc3N(C)CCCN(C)C)c2)ccn1 [N-(2-((3-(dimethylamino)propyl)(methyl)amino)-5-(1,1-dimethylethyl)phenyl)-2-fluoro-5-((2′-(methylamino)-3,4′-bipyridin-2-yl)oxy)benzamide] | < 1000
8 | CNc1ncnc(-c2cccnc2Oc2ccc(F)c(C(=O)Nc3cc(C(C)C)ccc3N(C)CCCN(C)C)c2)n1 [N-(2-((3-(dimethylamino)propyl)(methyl)amino)-5-(1-methylethyl)phenyl)-2-fluoro-5-((3-(4-(methylamino)-1,3,5-triazin-2-yl)-2-pyridinyl)oxy)benzamide] | < 1000
9 | CNc1ncnc(-c2cccnc2Oc2ccc(F)c(C(=O)Nc3cc(C(F)(F)C(F)(F)F)ccc3N(C)CCCN(C)C)c2)n1 [N-(2-((3-(dimethylamino)propyl)(methyl)amino)-5-(pentafluoroethyl)phenyl)-2-fluoro-5-((3-(4-(methylamino)-1,3,5-triazin-2-yl)-2-pyridinyl)oxy)benzamide] | < 1000
10 | CNc1cc(-c2cccnc2Oc2cc(C(=O)Nc3cc(C(F)(F)F)ccc3N(C)CCCN(C)C)ccc2C)ccn1 [N-(2-((3-(dimethylamino)propyl)(methyl)amino)-5-(trifluoromethyl)phenyl)-4-methyl-3-((2′-(methylamino)-3,4′-bipyridin-2-yl)oxy)benzamide] | < 1000
11 | CNc1nccc(-c2cccnc2Oc2cc(C(=O)Nc3cc(C(F)(F)F)ccc3N(C)CCCN(C)C)ccc2C)n1 [N-(2-((3-(dimethylamino)propyl)(methyl)amino)-5-(trifluoromethyl)phenyl)-4-methyl-3-((3-(2-(methylamino)-4-pyrimidinyl)-2-pyridinyl)oxy)benzamide] | < 1000
12 | CNc1ncnc(-c2cccnc2Oc2cc(C(=O)Nc3cc(C(F)(F)F)ccc3N(C)CCCN(C)C)ccc2C)n1 [N-(2-((3-(dimethylamino)propyl)(methyl)amino)-5-(trifluoromethyl)phenyl)-4-methyl-3-((3-(4-(methylamino)-1,3,5-triazin-2-yl)-2-pyridinyl)oxy)benzamide] | < 1000
13 | C#Cc1ccc(N(C)CCCN(C)C)c(NC(=O)c2cc(Oc3ncccc3-c3ccnc(NC)n3)ccc2F)c1 [N-(2-((3-(dimethylamino)propyl)(methyl)amino)-5-ethynylphenyl)-2-fluoro-5-((3-(2-(methylamino)-4-pyrimidinyl)-2-pyridinyl)oxy)benzamide] | < 1000

Next, values leading:

Row | IC50 [nM] | Structure (SMILES)
14 | < 1000 | CNc1cc(-c2cccnc2Oc2cc(C(=O)Nc3cccc(C(F)(F)F)c3)ccc2C)ncn1 [4-methyl-3-((3-(6-(methylamino)-4-pyrimidinyl)-2-pyridinyl)oxy)-N-(3-(trifluoromethyl)phenyl)benzamide]
15 | < 1000 | COc1ccc(C(F)(F)F)cc1NC(=O)c1ccc(C)c(Oc2ncccc2-c2ccncn2)c1 [4-methyl-N-(2-(methyloxy)-5-(trifluoromethyl)phenyl)-3-((3-(4-pyrimidinyl)-2-pyridinyl)oxy)benzamide]
16 | < 1000 | CNc1nccc(-c2cccnc2Oc2cccc(NC(=O)c3cc(C(C)(C)C)ccc3OC)c2)n1 [5-(1,1-dimethylethyl)-N-(3-((3-(2-(methylamino)-4-pyrimidinyl)-2-pyridinyl)oxy)phenyl)-2-(methyloxy)benzamide]
17 | < 1000 | CNc1nccc(-c2cccnc2Oc2cc(NC(=O)c3cc(C(C)(C)C)ccc3OC)ccc2C)n1 [5-(1,1-dimethylethyl)-N-(4-methyl-3-((3-(2-(methylamino)-4-pyrimidinyl)-2-pyridinyl)oxy)phenyl)-2-(methyloxy)benzamide]
18 | < 1000 | CNc1nccc(-c2cccnc2Oc2ccc(NC(=O)Nc3cc(C)ccc3C)cc2C)n1 [N-(2,5-dimethylphenyl)-N′-(3-methyl-4-((3-(2-(methylamino)-4-pyrimidinyl)-2-pyridinyl)oxy)phenyl)urea]
19 | < 1000 | CNc1ncnc(-c2cccnc2Oc2ccc(F)c(C(=O)Nc3cc(C(F)(F)F)ccc3N(C)CCCN(C)C)c2)n1 [N-(2-((3-(dimethylamino)propyl)(methyl)amino)-5-(trifluoromethyl)phenyl)-2-fluoro-5-((3-(4-(methylamino)-1,3,5-triazin-2-yl)-2-pyridinyl)oxy)benzamide]
20 | < 1000 | CNc1ncnc(-c2cccnc2Oc2ccc(NC(=O)Nc3cc(C(F)(F)F)ccc3N(C)CCCN(C)C)c3ccccc23)n1 [N-(2-((3-(dimethylamino)propyl)(methyl)amino)-5-(trifluoromethyl)phenyl)-N′-(4-((3-(4-(methylamino)-1,3,5-triazin-2-yl)-2-pyridinyl)oxy)-1-naphthalenyl)urea]
21 | < 1000 | CNc1nccc(-c2cccnc2Oc2cc(C(=O)Nc3cc(C(F)(F)F)ccc3N3CC[C@H](N(C)C)C3)ccc2C)n1 [N-(2-((3S)-3-(dimethylamino)-1-pyrrolidinyl)-5-(trifluoromethyl)phenyl)-4-methyl-3-((3-(2-(methylamino)-4-pyrimidinyl)-2-pyridinyl)oxy)benzamide]
22 | < 1000 | CNc1ncnc(-c2cccnc2Oc2ccc(NC(=O)Nc3cc(C(F)(F)F)ccc3N3CC[C@H](N(C)C)C3)c3ccccc23)n1 [N-(2-((3S)-3-(dimethylamino)-1-pyrrolidinyl)-5-(trifluoromethyl)phenyl)-N′-(4-((3-(4-(methylamino)-1,3,5-triazin-2-yl)-2-pyridinyl)oxy)-1-naphthalenyl)urea]
23 | < 1000 | CNc1ncnc(-c2cccnc2Oc2ccc(NC(=O)Nc3cc(C(F)(F)F)ccc3CN3CC[C@@H](N(C)C)C3)c3ccccc23)n1 [N-(2-(((3R)-3-(dimethylamino)-1-pyrrolidinyl)methyl)-5-(trifluoromethyl)phenyl)-N′-(4-((3-(4-(methylamino)-1,3,5-triazin-2-yl)-2-pyridinyl)oxy)-1-naphthalenyl)urea]
